Test results as given in ChEMBL document CHEMBL3632477 (2015).
Where a SMILES comes first, the peptide text is derived from it. Bridges are numbered along the chain shown (N, C = ends). [ ]: non-standard residue; d: D form. ξ: configuration not given here. Bip(2'-Et-4'-OMe) = CCc1cc(OC)ccc1-c1ccc(C[C@H](N)C(=O)O)cc1; αMePhe(2,6-F2) = C[C@](N)(Cc1c(F)cccc1F)C(=O)O; ξαMePhe(2,6-F2) = CC(N)(Cc1c(F)cccc1F)C(=O)O; Bip = N[C@@H](Cc1ccc(-c2ccccc2)cc1)C(=O)O; αMePhe(2-F) = C[C@](N)(Cc1ccccc1F)C(=O)O; ξαMePhe(2-F) = CC(N)(Cc1ccccc1F)C(=O)O; hhPhe = N[C@@H](CCCc1ccccc1)C(=O)O; αMeF = C[C@](N)(Cc1ccccc1)C(=O)O; Aib = CC(C)(N)C(=O)O

Target: Glucagon-like peptide 1 receptor (Homo sapiens, UniProt P43220)
Experiment: Agonist activity at human GLP-1R expressed in CHO-K1 cells assessed as increase in cAMP level incubated for 30 mins
Assay type: functional, cell-based

Sequence of Glucagon-like peptide 1 receptor (P43220 whole entry): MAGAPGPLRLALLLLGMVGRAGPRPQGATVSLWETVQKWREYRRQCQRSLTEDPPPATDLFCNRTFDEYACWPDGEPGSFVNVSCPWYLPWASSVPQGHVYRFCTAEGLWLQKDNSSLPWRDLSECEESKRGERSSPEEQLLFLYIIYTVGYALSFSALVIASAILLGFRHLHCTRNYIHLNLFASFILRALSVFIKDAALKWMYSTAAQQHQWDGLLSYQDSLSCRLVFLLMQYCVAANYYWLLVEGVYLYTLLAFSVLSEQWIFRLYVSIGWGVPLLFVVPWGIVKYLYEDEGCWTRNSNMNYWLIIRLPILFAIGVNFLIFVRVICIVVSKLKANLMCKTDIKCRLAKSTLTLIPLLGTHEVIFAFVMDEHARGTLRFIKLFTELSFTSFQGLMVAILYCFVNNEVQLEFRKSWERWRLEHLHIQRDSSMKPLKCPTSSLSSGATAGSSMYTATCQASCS

Row | SMILES | EC50
1 | CCc1cc(OC)ccc1-c1ccc(C[C@@H]2NC(=O)[C@H](CC(=O)O)NC(=O)[C@H](CO)NC(=O)[C@H]([C@@H](C)O)NC(=O)[C@](C)(Cc3c(F)cccc3F)NC(=O)[C@H]([C@@H](C)O)NC(=O)CNC(=O)[C@H](CCC(=O)O)NC(=O)[C@@H]3CCCN3C(=O)[C@H](Cc3cnc[nH]3)NC(=O)[C@H](CO)NC(=O)[C@@H]3CSSC[C@H](NC(=O)[C@H](CCCc4ccccc4)NC2=O)C(=O)NCC(=O)N[C@@H](Cc2ccc(-c4ccccc4)cc2)C(=O)N[C@@H](C)C(=O)N[C@@H](C)C(=O)NCC(=O)NCC(=O)NCC(=O)N[C@@H](C)C(=O)N3)cc1 (cyclo(AAGGGACSHPEGT[αMePhe(2,6-F2)]TSD[Bip(2'-Et-4'-OMe)][hhPhe]CG[Bip]); disulfide 7-20) | 0.47 µM
2 | CCc1cc(OC)ccc1-c1ccc(C[C@H](NC(=O)[C@H](CC(=O)O)NC(=O)[C@H](CO)NC(=O)[C@@H](NC(=O)[C@](C)(Cc2c(F)cccc2F)NC(=O)[C@@H](NC(=O)CNC(=O)[C@H](CCC(=O)O)NC(=O)[C@@H]2CCCN2C(=O)[C@@H](N)Cc2cnc[nH]2)[C@@H](C)O)[C@@H](C)O)C(=O)N[C@@H](CCCc2ccccc2)C(=O)N[C@H]2CSSC[C@@H](C(=O)N[C@@H](CO)C(=O)O)NC(=O)[C@H](C)NC(=O)CNC(=O)CNC(=O)CNC(=O)[C@H](C)NC(=O)[C@H](C)NC(=O)CNC(=O)CNC2=O)cc1 (H-HPEGT[αMePhe(2,6-F2)]TSD[Bip(2'-Et-4'-OMe)][hhPhe]CGGAAGGGACS-OH; disulfide 12-21) | 0.00085 µM
3 | CCc1cc(OC)ccc1-c1ccc(C[C@@H]2NC(=O)[C@H](CC(=O)O)NC(=O)[C@H](CO)NC(=O)[C@@H]3CSSC[C@@H](C(=O)O)NC(=O)[C@H](CSSC[C@H](NC(=O)CNC(=O)[C@H](CCC(=O)O)NC(=O)C(C)(C)NC(=O)[C@@H](N)Cc4cnc[nH]4)C(=O)NC(C)(Cc4ccccc4F)C(=O)N3)NC(=O)[C@H](CC(C)C)NC(=O)[C@H](CCCc3ccccc3)NC2=O)cc1 (some centres not stated) (H-H[Aib]EGC[ξαMePhe(2-F)]CSD[Bip(2'-Et-4'-OMe)][hhPhe]LCC-OH; disulfide 5-13, 7-14) | 5 µM
4 | CCc1cc(OC)ccc1-c1ccc(C[C@H](NC(=O)[C@H](CC(=O)O)NC(=O)[C@H](CO)NC(=O)[C@@H](NC(=O)[C@](C)(Cc2ccccc2)NC(=O)[C@@H](NC(=O)CNC(=O)[C@H](CCC(=O)O)NC(=O)[C@@H]2CCCN2C(=O)[C@@H](N)Cc2cnc[nH]2)[C@@H](C)O)[C@@H](C)O)C(=O)N[C@@H](CCCc2ccccc2)C(=O)N[C@H]2CSSC[C@@H](C(=O)N[C@@H](CO)C(=O)O)NC(=O)[C@H](C)NC(=O)CNC(=O)CNC(=O)CNC(=O)[C@H](C)NC(=O)[C@H](C)NC(=O)[C@H](Cc3ccc(-c4ccccc4)cc3)NC(=O)CNC2=O)cc1 (H-HPEGT[αMeF]TSD[Bip(2'-Et-4'-OMe)][hhPhe]CG[Bip]AAGGGACS-OH; disulfide 12-21) | 0.047 µM
5 | CCc1cc(OC)ccc1-c1ccc(C[C@H](NC(=O)[C@H](CS)NC(=O)[C@H](CO)NC(=O)[C@@H](NC(=O)[C@](C)(Cc2ccccc2F)NC(=O)[C@H](CS)NC(=O)CNC(=O)[C@H](CCC(=O)O)NC(=O)C(C)(C)NC(=O)[C@@H](N)Cc2cnc[nH]2)[C@@H](C)O)C(=O)N[C@@H](CCCc2ccccc2)C(N)=O)cc1 (H-H[Aib]EGC[αMePhe(2-F)]TSC[Bip(2'-Et-4'-OMe)][hhPhe]-NH2) | 0.85 µM
6 | CCc1cc(OC)ccc1-c1ccc(C[C@H](NC(=O)[C@H](CC(=O)O)NC(=O)[C@H](CO)NC(=O)[C@@H](NC(=O)[C@](C)(Cc2c(F)cccc2F)NC(=O)[C@@H](NC(=O)CNC(=O)[C@H](CCC(=O)O)NC(=O)[C@@H]2CCCN2C(=O)[C@@H](N)Cc2cnc[nH]2)[C@@H](C)O)[C@@H](C)O)C(=O)N[C@@H](CCCc2ccccc2)C(=O)N[C@H]2CSSC[C@@H](C(=O)N[C@@H](CO)C(=O)O)NC(=O)[C@H](C(C)C)NC(=O)[C@H](C(C)C)NC(=O)CNC(=O)[C@H](C(C)C)NC(=O)[C@H](C(C)C)NC(=O)[C@H](C(C)C)NC(=O)CNC(=O)CNC2=O)cc1 (H-HPEGT[αMePhe(2,6-F2)]TSD[Bip(2'-Et-4'-OMe)][hhPhe]CGGVVVGVVCS-OH; disulfide 12-21) | 0.019 µM
7 | CCc1cc(OC)ccc1-c1ccc(C[C@@H]2NC(=O)[C@H](CC(=O)O)NC(=O)[C@H](CO)NC(=O)[C@@H]3CSSC[C@@H](C(=O)O)NC(=O)[C@H](CSSC[C@H](NC(=O)CNC(=O)[C@H](CCC(=O)O)NC(=O)C(C)(C)NC(=O)[C@@H](N)Cc4cnc[nH]4)C(=O)N[C@@](C)(Cc4c(F)cccc4F)C(=O)N3)NC(=O)[C@H](Cc3ccc(-c4ccccc4)cc3)NC(=O)[C@H](CCCc3ccccc3)NC2=O)cc1 (H-H[Aib]EGC[αMePhe(2,6-F2)]CSD[Bip(2'-Et-4'-OMe)][hhPhe][Bip]CC-OH; disulfide 5-13, 7-14) | 7.5 µM
8 | CCc1cc(OC)ccc1-c1ccc(C[C@H](NC(=O)[C@H](CC(=O)O)NC(=O)[C@H](CO)NC(=O)[C@@H](NC(=O)[C@](C)(Cc2c(F)cccc2F)NC(=O)[C@@H](NC(=O)CNC(=O)[C@H](CCC(=O)O)NC(=O)[C@@H]2CCCN2C(=O)[C@@H](N)Cc2cnc[nH]2)[C@@H](C)O)[C@@H](C)O)C(=O)N[C@@H](CCCc2ccccc2)C(=O)N[C@H]2CSSC[C@@H](C(=O)N[C@@H](CO)C(=O)O)NC(=O)[C@H](C)NC(=O)CNC(=O)CNC(=O)CNC(=O)[C@H](C)NC(=O)[C@H](C)NC(=O)[C@H](Cc3ccc(-c4ccccc4)cc3)NC(=O)CNC2=O)cc1 (H-HPEGT[αMePhe(2,6-F2)]TSD[Bip(2'-Et-4'-OMe)][hhPhe]CG[Bip]AAGGGACS-OH; disulfide 12-21) | 0.0024 µM
9 | CCc1cc(OC)ccc1-c1ccc(C[C@@H]2NC(=O)[C@H](CC(=O)O)NC(=O)[C@H](CO)NC(=O)[C@@H]3CSSC[C@@H](C(=O)O)NC(=O)[C@H](CSSC[C@H](NC(=O)CNC(=O)[C@H](CCC(=O)O)NC(=O)C(C)(C)NC(=O)[C@@H](N)Cc4cnc[nH]4)C(=O)NC(C)(Cc4c(F)cccc4F)C(=O)N3)NC(=O)[C@H](CC(C)C)NC(=O)[C@H](CCCc3ccccc3)NC2=O)cc1 (some centres not stated) (H-H[Aib]EGC[ξαMePhe(2,6-F2)]CSD[Bip(2'-Et-4'-OMe)][hhPhe]LCC-OH; disulfide 5-13, 7-14) | 0.43 µM
10 | CCc1cc(OC)ccc1-c1ccc(C[C@H](NC(=O)[C@H](CC(=O)O)NC(=O)[C@H](CO)NC(=O)[C@@H](NC(=O)[C@](C)(Cc2ccccc2)NC(=O)[C@@H](NC(=O)CNC(=O)[C@H](CCC(=O)O)NC(=O)[C@@H]2CCCN2C(=O)[C@@H](N)Cc2cnc[nH]2)[C@@H](C)O)[C@@H](C)O)C(=O)N[C@@H](CCCc2ccccc2)C(=O)N[C@H]2CSSC[C@@H](C(=O)N[C@@H](CO)C(=O)O)NC(=O)[C@H](CC(C)C)NC(=O)[C@H](CC(C)C)NC(=O)CNC(=O)[C@H](CC(C)C)NC(=O)[C@H](CC(C)C)NC(=O)[C@H](CC(C)C)NC(=O)CNC(=O)CNC2=O)cc1 (H-HPEGT[αMeF]TSD[Bip(2'-Et-4'-OMe)][hhPhe]CGGLLLGLLCS-OH; disulfide 12-21) | 0.13 µM
11 | CCc1cc(OC)ccc1-c1ccc(C[C@@H]2NC(=O)[C@H](CC(=O)O)NC(=O)[C@H](CO)NC(=O)[C@H]([C@@H](C)O)NC(=O)[C@](C)(Cc3ccccc3)NC(=O)[C@H]([C@@H](C)O)NC(=O)CNC(=O)[C@H](CCC(=O)O)NC(=O)[C@@H]3CCCN3C(=O)[C@H](Cc3cnc[nH]3)NC(=O)[C@H](CO)NC(=O)[C@@H]3CSSC[C@H](NC(=O)[C@H](CCCc4ccccc4)NC2=O)C(=O)NCC(=O)N[C@@H](Cc2ccc(-c4ccccc4)cc2)C(=O)N[C@@H](C)C(=O)N[C@@H](C)C(=O)NCC(=O)NCC(=O)NCC(=O)N[C@@H](C)C(=O)N3)cc1 (cyclo(AAGGGACSHPEGT[αMeF]TSD[Bip(2'-Et-4'-OMe)][hhPhe]CG[Bip]); disulfide 7-20) | 0.36 µM
12 | CCc1cc(OC)ccc1-c1ccc(C[C@H](NC(=O)[C@H](CC(=O)O)NC(=O)[C@H](CO)NC(=O)[C@@H](NC(=O)[C@](C)(Cc2ccccc2F)NC(=O)[C@@H](NC(=O)CNC(=O)[C@H](CCC(=O)O)NC(=O)[C@@H]2CCCN2C(=O)[C@@H](N)Cc2cnc[nH]2)[C@@H](C)O)[C@@H](C)O)C(=O)N[C@@H](CCCc2ccccc2)C(=O)N[C@H]2CSSC[C@@H](C(=O)N[C@@H](CO)C(=O)O)NC(=O)[C@H](C)NC(=O)CNC(=O)CNC(=O)CNC(=O)[C@H](C)NC(=O)[C@H](C)NC(=O)CNC(=O)CNC2=O)cc1 (H-HPEGT[αMePhe(2-F)]TSD[Bip(2'-Et-4'-OMe)][hhPhe]CGGAAGGGACS-OH; disulfide 12-21) | 0.001 µM
